Assay [1] concerns Escherichia coli. Put plainly: Antibacterial activity against Escherichia coli ATCC 25668. In kind it is functional.
For assay [2], the system named is Salmonella typhimurium. Description: Antibacterial activity against Salmonella Typhimurium isolate. Type of assay: functional, Salmonella enterica subsp. enterica serovar Typhimurium. The note with it: Salmonella enterica.
Assay [3] relates to Pseudomonas aeruginosa. Description: Antibacterial activity against Pseudomonas aeruginosa ATCC 11775 upto 512 ug/mL. In kind it is functional, organism-based.
For assay [4], the system named is Staphylococcus aureus. Description: Antibacterial activity against Staphylococcus aureus isolate upto 512 ug/mL. In kind it is functional, organism-based.
Assay [5] concerns Pseudomonas aeruginosa. Put plainly: Antibacterial activity against Pseudomonas aeruginosa ATCC 11775. Type of assay: functional.
The subject of assay [6] is Staphylococcus aureus. Put plainly: Antibacterial activity against Staphylococcus aureus isolate. Type of assay: functional.
The test system of assay [7] is Escherichia coli. Description: Antibacterial activity against Escherichia coli ATCC 25668 upto 512 ug/mL. Type of assay: functional, organism-based.
Assay [8] concerns Salmonella typhimurium. Description: Antibacterial activity against Salmonella Typhimurium isolate upto 512 ug/mL. In kind it is functional, organism-based. The note with it: Salmonella enterica subsp. enterica serovar Typhimurium.

≈ marks a conversion by molar mass, not a printed value. Calls of active or inactive are those of the source.

Results on 13 molecules are retold here after ChEMBL document CHEMBL1139938, “Syntheses and antibacterial activity of phendioxy substituted cyclic enediynes” (2007).

The MIC is the smallest concentration in the dilution series that meets the test's criterion for growth inhibition.

As to `Cc1ccc(/N=C/c2ccc3cc2OCC#C/C=C\C#CCO3)cc1`, the MIC in the assay with Escherichia coli [1] is 256 µg/mL (≈ 782 µM); against Salmonella typhimurium [2], 128 µg/mL (≈ 391 µM). Besides, the result with Pseudomonas aeruginosa [3] and with Staphylococcus aureus [4] was inactive.

Regarding `Cc1ccc(NCc2ccc3cc2OCC#C/C=C\C#CCO3)cc1`, the MIC in the assay with Pseudomonas aeruginosa [5] was determined as 32 µg/mL (≈ 97.1 µM); against Escherichia coli [1], 4 µg/mL (≈ 12.1 µM); against Staphylococcus aureus [6], 16 µg/mL (≈ 48.6 µM); with Salmonella typhimurium [2], 128 µg/mL (≈ 389 µM).

Consider `C1#CCOc2cccc(c2)OCC#C/C=C\1`, for which the MIC amounted to 4 µg/mL (≈ 19 µM) against Escherichia coli [1] and 8 µg/mL (≈ 38.1 µM) in the assay with Salmonella typhimurium [2]. The result in the assay with Pseudomonas aeruginosa [3] and in the assay with Staphylococcus aureus [4] was inactive.

Take `C#CCOc1ccc(C=O)c(OCC#C)c1`: the MIC with Pseudomonas aeruginosa [5], in the assay on Escherichia coli [1], against Staphylococcus aureus [6] and against Salmonella typhimurium [2] was over 1000 µg/mL in each case.

Take `CN(C)[C@@H]1C(O)=C(C(N)=O)C(=O)[C@@]2(O)C(O)=C3C(=O)c4c(O)cccc4[C@@](C)(O)[C@H]3C[C@@H]12` [TETRACYCLINE]: the MIC stood at 1 µg/mL (≈ 2.25 µM) in the assay on Pseudomonas aeruginosa [5], 2 µg/mL (≈ 4.5 µM) against Escherichia coli [1], 2 µg/mL (≈ 4.5 µM) with Staphylococcus aureus [6] and 0.5 µg/mL (≈ 1.13 µM) with Salmonella typhimurium [2].

Regarding `C1#CCOc2ccc(CNc3ccccc3)c(c2)OCC#C/C=C\1`, the MIC came to 16 µg/mL (≈ 50.7 µM) against Pseudomonas aeruginosa [5], 4 µg/mL (≈ 12.7 µM) against Escherichia coli [1], 8 µg/mL (≈ 25.4 µM) in the assay on Staphylococcus aureus [6] and 16 µg/mL (≈ 50.7 µM) against Salmonella typhimurium [2].

As for `C#CCOc1cccc(OCC#C)c1`, the MIC in the assay on Pseudomonas aeruginosa [5], in the assay on Escherichia coli [1], against Staphylococcus aureus [6] and in the assay with Salmonella typhimurium [2] was over 1000 µg/mL in each case.

In turn, `Brc1ccc(/N=C/c2ccc3cc2OCC#C/C=C\C#CCO3)cc1` displayed an MIC against Salmonella typhimurium [2] of 128 µg/mL (≈ 326 µM). Also, the outcome with Pseudomonas aeruginosa [3], in the assay with Escherichia coli [7] and with Staphylococcus aureus [4] was inactive.

For `Brc1ccc(NCc2ccc3cc2OCC#C/C=C\C#CCO3)cc1`, the MIC in the assay on Escherichia coli [1] is 128 µg/mL (≈ 325 µM). Besides, the outcome in the assay on Pseudomonas aeruginosa [3], in the assay on Staphylococcus aureus [4] and in the assay on Salmonella typhimurium [8] was inactive.

Take `C1#CCOc2ccc(/C=N/c3ccccc3)c(c2)OCC#C/C=C\1`: the MIC was 128 µg/mL (≈ 408 µM) in the assay on Pseudomonas aeruginosa [5], 128 µg/mL (≈ 408 µM) in the assay with Escherichia coli [1], 128 µg/mL (≈ 408 µM) against Staphylococcus aureus [6] and 64 µg/mL (≈ 204 µM) in the assay on Salmonella typhimurium [2].

Regarding `Clc1ccc(NCc2ccc3cc2OCC#C/C=C\C#CCO3)cc1`, the MIC in the assay on Escherichia coli [1] was 64 µg/mL (≈ 183 µM); with Salmonella typhimurium [2] it was 512 µg/mL (≈ 1460 µM). The result in the assay on Pseudomonas aeruginosa [3] and in the assay with Staphylococcus aureus [4] was inactive.

Turning to `OCc1ccc2cc1OCC#C/C=C\C#CCO2`, the MIC in the assay on Escherichia coli [1] amounted to 8 µg/mL (≈ 33.3 µM); in the assay with Staphylococcus aureus [6] it was 4 µg/mL (≈ 16.6 µM); with Salmonella typhimurium [2], 128 µg/mL (≈ 533 µM). Moreover, the outcome in the assay on Pseudomonas aeruginosa [3] was inactive.

In the case of `O=Cc1ccc2cc1OCC#C/C=C\C#CCO2`, the MIC in the assay with Escherichia coli [1] worked out at 256 µg/mL (≈ 1070 µM); against Staphylococcus aureus [6], 8 µg/mL (≈ 33.6 µM); against Salmonella typhimurium [2] it was 128 µg/mL (≈ 537 µM). Moreover, the result in the assay on Pseudomonas aeruginosa [3] was inactive.
